Source: US20100015141A1, “4-PHENOXY-6-ARYL-1H-PYRAZOLO[3,4-D]PYRIMIDINE AND N-ARYL-6-ARYL-1H-PYRAZOLO[3,4-D]PYRIMIDIN-4-AMINE COMPOUNDS, THEIR USE AS MTOR KINASE AND PI3 KINASE INHIBITORS, AND THEIR SYNTHESES” (Wyeth, priority 2008, published 2010)

Legend:
Format in all cases: biochemical
[1] = molecular target: PI3K-γ (Homo sapiens, UniProt P48736); experiment: PI3K-gamma fluorescence polarization assay; conditions: 20 μM PIP2, 25 μM ATP
Protocol: (§1) The reaction buffer was 20 mM HEPES pH7.5, 2 mM MgCl2, 0.05% CHAPS, and 0.01% βME (added fresh). The substrate solution was 40 μM PIP2 (diC8, Echelon, Salt Lake City Utah cat #P-4508, 1 mM in water) and 50 μM ATP in the reaction buffer. Nunc 384-well black polypropylene fluorescent plates were used for PI3K assays. The assay is run by putting 9.5 μl of freshly diluted enzyme in the reaction buffer per well, adding 0.5 μl of diluted drug or DMSO, and mixing. Then 10 μl of the substrate solution is added to each well to start the reaction. A final concentration of 20 μM PIP2 and 25 μM ATP in the reaction was used. Reactions were allowed to proceed for 30-60 minutes at room temperature. After 30-60 minutes, 20 μl of a solution of 10 nM TAMRA detector (Red detector probe-Echelon) and 2.5 uM of GST-murineGRP (1.5 mg/ml in 17% glycerol) was added per well to stop the reaction. The resulting solution was mixed well and allowed to stand for 90-110 minutes before reading plate. Assay Plates were read on Perkin-Elmer Envision plate readers with appropriate filters for Tamra [BODIPY-TMRI(1,3,4,5)P4]. Data obtained were used to calculate enzymatic activity and enzyme inhibition by inhibitor compounds. It is important to keep Red probe solutions dark. This procedure is adapted from Echelon Biosciences Inc procedure for their PI3-Kinase fluorescence polarization activity Assay kit Product number K-1100.

[2] = molecular target: mTOR (Homo sapiens, UniProt P42345); experiment: mTOR enzyme assay (DELFIA, His6-S6K phosphorylation); set-up: FLAG; conditions: 100 μM ATP, 1.25 μM His6-S6K
[3] = molecular target: PI3K-α (Homo sapiens, UniProt P42336); experiment: PI3K-alpha fluorescence polarization assay; conditions: 20 μM PIP2, 25 μM ATP
Chain of PI3K-α (P42336 whole entry, species assumed): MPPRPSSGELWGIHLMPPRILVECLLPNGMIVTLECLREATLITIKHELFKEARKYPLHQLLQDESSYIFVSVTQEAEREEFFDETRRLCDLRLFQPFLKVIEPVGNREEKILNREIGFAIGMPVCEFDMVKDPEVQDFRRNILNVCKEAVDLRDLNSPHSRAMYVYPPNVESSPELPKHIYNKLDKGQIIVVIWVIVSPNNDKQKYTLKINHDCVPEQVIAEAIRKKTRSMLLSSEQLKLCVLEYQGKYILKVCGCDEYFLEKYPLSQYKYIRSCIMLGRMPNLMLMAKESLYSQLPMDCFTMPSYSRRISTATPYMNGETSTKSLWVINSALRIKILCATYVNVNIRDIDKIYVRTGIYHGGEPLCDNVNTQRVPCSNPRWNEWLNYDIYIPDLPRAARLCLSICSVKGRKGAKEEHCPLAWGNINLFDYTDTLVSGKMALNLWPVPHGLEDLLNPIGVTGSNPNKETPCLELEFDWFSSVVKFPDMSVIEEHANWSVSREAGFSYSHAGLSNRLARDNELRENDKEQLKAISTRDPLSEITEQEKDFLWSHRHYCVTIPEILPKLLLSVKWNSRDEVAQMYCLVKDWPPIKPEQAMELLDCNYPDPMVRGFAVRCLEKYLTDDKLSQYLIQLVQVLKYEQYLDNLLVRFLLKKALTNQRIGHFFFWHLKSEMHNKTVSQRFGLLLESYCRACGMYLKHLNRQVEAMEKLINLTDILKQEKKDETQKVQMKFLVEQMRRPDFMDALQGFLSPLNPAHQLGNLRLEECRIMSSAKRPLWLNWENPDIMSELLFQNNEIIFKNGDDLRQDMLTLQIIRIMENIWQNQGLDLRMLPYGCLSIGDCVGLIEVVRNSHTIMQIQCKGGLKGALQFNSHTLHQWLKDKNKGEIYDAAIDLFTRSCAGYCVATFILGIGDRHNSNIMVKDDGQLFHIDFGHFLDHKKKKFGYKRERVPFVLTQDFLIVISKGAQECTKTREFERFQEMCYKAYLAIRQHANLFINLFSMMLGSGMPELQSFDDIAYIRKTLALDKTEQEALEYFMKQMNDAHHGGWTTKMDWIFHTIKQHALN
Chain of PI3K-α (P27986 whole entry partner, species assumed): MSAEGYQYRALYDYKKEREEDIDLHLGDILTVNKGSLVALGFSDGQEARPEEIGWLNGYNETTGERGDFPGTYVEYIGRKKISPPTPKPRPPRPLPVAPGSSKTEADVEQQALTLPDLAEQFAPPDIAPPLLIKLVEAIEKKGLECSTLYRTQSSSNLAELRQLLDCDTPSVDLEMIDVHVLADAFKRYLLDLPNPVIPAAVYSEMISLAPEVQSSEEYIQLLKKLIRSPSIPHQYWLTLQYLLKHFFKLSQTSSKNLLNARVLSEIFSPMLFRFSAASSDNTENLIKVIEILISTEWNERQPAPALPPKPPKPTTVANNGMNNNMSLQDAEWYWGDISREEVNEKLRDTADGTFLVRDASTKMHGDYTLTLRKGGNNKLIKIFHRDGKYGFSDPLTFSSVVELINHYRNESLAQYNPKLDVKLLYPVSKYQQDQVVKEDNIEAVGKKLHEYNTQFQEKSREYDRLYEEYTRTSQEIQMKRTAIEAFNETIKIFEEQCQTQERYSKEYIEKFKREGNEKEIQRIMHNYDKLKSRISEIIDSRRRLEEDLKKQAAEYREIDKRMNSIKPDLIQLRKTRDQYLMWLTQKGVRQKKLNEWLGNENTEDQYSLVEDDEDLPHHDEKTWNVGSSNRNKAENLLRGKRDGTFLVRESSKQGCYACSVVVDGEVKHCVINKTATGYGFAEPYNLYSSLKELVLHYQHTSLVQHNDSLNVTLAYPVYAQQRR
Protocol: as §1

Chain of PI3K-γ (P48736 whole entry, species assumed): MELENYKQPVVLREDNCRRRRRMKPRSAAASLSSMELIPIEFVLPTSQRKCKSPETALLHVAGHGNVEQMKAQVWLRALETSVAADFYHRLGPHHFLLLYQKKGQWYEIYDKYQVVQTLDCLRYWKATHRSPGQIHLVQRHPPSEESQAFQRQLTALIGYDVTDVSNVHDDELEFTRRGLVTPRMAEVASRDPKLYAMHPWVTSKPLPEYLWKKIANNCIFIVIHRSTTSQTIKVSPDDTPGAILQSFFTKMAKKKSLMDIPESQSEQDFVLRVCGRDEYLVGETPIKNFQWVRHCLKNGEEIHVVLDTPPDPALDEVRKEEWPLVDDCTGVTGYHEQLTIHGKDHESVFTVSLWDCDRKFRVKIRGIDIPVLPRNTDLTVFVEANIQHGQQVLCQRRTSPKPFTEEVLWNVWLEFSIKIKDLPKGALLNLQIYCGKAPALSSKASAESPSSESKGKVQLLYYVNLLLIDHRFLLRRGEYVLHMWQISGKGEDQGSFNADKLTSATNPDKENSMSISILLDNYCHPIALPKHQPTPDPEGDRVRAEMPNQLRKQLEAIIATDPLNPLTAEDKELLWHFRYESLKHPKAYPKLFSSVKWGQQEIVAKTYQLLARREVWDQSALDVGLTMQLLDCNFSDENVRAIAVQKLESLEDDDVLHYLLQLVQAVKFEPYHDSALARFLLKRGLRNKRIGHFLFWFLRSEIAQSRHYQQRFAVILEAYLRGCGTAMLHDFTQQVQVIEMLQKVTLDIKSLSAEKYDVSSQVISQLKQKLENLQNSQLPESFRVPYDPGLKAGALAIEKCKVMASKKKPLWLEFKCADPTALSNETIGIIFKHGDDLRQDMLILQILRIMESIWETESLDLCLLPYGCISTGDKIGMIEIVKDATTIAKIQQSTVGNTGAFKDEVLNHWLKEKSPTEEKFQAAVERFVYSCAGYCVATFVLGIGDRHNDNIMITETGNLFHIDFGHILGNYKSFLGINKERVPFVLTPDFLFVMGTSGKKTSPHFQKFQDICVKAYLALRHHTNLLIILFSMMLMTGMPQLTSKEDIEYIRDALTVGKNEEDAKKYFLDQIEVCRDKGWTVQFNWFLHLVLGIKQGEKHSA

IC50 [1] [nM] | IC50 [2] [nM] | IC50 [3] [nM] | Structure (SMILES)
1580 | 950 | 167 | Cn1ncc2c(Nc3ccc(C(N)=O)cc3)nc(-c3ccccc3)nc21 [Example 11, 4-[(1-methyl-6-phenyl-1H-pyrazolo[3,4-d]pyrimidin-4-yl)amino]benzamide]
> 10000 | 16000 | 6700 | CN(c1ccc(C(N)=O)cc1)c1nc(-c2ccccc2)nc2c1cnn2C [Example 34, 4-[methyl(1-methyl-6-phenyl-1H-pyrazolo[3,4-d]pyrimidin-4-yl)amino]benzamide]
7470 | 4700 | 1500 | CC(=O)Nc1ccc(N(C)c2nc(-c3ccccc3)nc3c2cnn3C)cc1 [Example 35, N-{4-[methyl(1-methyl-6-phenyl-1H-pyrazolo[3,4-d]pyrimidin-4-yl)amino]phenyl}acetamide]
1140 | 2500 | 298 | COc1cccc(-c2nc(Oc3ccc4[nH]ccc4c3)c3cnn(C)c3n2)c1 [Example 38, 4-(1H-indol-5-yloxy)-6-(3-methoxyphenyl)-1-methyl-1H-pyrazolo[3,4-d]pyrimidine]
118 | 2800 | 160 | COc1ccc(-c2nc(Oc3ccc4[nH]ccc4c3)c3cnn(C)c3n2)cc1OC [Example 39, 6-(3,4-dimethoxyphenyl)-4-(1H-indol-5-yloxy)-1-methyl-1H-pyrazolo[3,4-d]pyrimidine]
428 | 7200 | 215 | Cn1ncc2c(Oc3ccc4[nH]ccc4c3)nc(-c3cccnc3)nc21 [Example 41, 4-(1H-indol-5-yloxy)-1-methyl-6-pyridin-3-yl-1H-pyrazolo[3,4-d]pyrimidine]
1610 | 8400 | 598 | Cn1ncc2c(Oc3ccc4[nH]ccc4c3)nc(-c3cccc(C#N)c3)nc21 [Example 43, 3-[4-(1H-indol-5-yloxy)-1-methyl-1H-pyrazolo[3,4-d]pyrimidin-6-yl]benzonitrile]
> 10000 | – | 2870 | Cn1ncc2c(Oc3ccc4[nH]ccc4c3)nc(-c3cccc(-c4ccccc4)c3)nc21 [Example 44, 6-biphenyl-3-yl-4-(1H-indol-5-yloxy)-1-methyl-1H-pyrazolo[3,4-d]pyrimidine]
1290 | > 20000 | 653 | COc1cccc(-c2nc(Oc3ccc(OC)c(OC)c3)c3cnn(C)c3n2)c1 [Example 45, 4-(3,4-dimethoxyphenoxy)-6-(3-methoxyphenyl)-1-methyl-1H-pyrazolo[3,4-d]pyrimidine]
> 10000 | – | 6040 | COc1ccc(Oc2nc(-c3ccc(N(C)C)cc3)nc3c2cnn3C)cc1OC [Example 47, 4-[4-(3,4-dimethoxyphenoxy)-1-methyl-1H-pyrazolo[3,4-d]pyrimidin-6-yl]-N,N-dimethylaniline]
> 10000 | – | 4960 | CC(=O)Nc1ccc(Oc2nc(-c3ccc(N(C)C)cc3)nc3c2cnn3C)cc1 [Example 51, N-[4-({6-[4-(dimethylamino)phenyl]-1-methyl-1H-pyrazolo[3,4-d]pyrimidin-4-yl}oxy)phenyl]acetamide]
10500 | – | 1330 | CC(=O)Nc1ccc(Oc2nc(-c3cccc(C(F)(F)F)c3)nc3c2cnn3C)cc1 [Example 52, N-[4-({1-methyl-6-[3-(trifluoromethyl)phenyl]-1H-pyrazolo[3,4-d]pyrimidin-4-yl}oxy)phenyl]acetamide]
> 10000 | – | 4620 | CC(=O)Nc1ccc(Oc2nc(-c3cccc(-c4ccccc4)c3)nc3c2cnn3C)cc1 [Example 53, N-{4-[(6-biphenyl-3-yl-1-methyl-1H-pyrazolo[3,4-d]pyrimidin-4-yl)oxy]phenyl}acetamide]
398 | 4900 | 266 | CC(=O)Nc1ccc(Oc2nc(-c3ccc(O)cc3)nc3c2cnn3C)cc1 [Example 54, N-(4-{[6-(4-hydroxyphenyl)-1-methyl-1H-pyrazolo[3,4-d]pyrimidin-4-yl]oxy}phenyl)acetamide]
600 | 570 | 387 | CC(=O)Nc1ccc(Oc2nc(-c3ccc4[nH]ccc4c3)nc3c2cnn3C)cc1 [Example 55, N-(4-{[6-(1H-indol-5-yl)-1-methyl-1H-pyrazolo[3,4-d]pyrimidin-4-yl]oxy}phenyl)acetamide]
> 10000 | 16000 | 11500 | Cn1ncc2c(Oc3ccc4[nH]ccc4c3)nc(-c3ccc(-c4ccccc4)cc3)nc21 [Example 56, 6-biphenyl-4-yl-4-(1H-indol-5-yloxy)-1-methyl-1H-pyrazolo[3,4-d]pyrimidine]

IC50 [1] [nM] | IC50 [2] [nM] | IC50 [3] [nM] | Structure (SMILES)
> 10000 | 12000 | 3220 | COc1ccc2cc(-c3nc(Oc4ccc5[nH]ccc5c4)c4cnn(C)c4n3)ccc2c1 [Example 57, 4-(1H-indol-5-yloxy)-6-(6-methoxy-2-naphthyl)-1-methyl-1H-pyrazolo[3,4-d]pyrimidine]
10600 | > 20000 | 3800 | CC(C)c1ccc(-c2nc(Oc3ccc4[nH]ccc4c3)c3cnn(C)c3n2)cc1 [Example 58, 4-(1H-indol-5-yloxy)-6-(4-isopropylphenyl)-1-methyl-1H-pyrazolo[3,4-d]pyrimidine]
2510 | > 20000 | 2870 | Cn1cc(-c2nc(Oc3ccc4[nH]ccc4c3)c3cnn(C)c3n2)cn1 [Example 59, 4-(1H-indol-5-yloxy)-1-methyl-6-(1-methyl-1H-pyrazol-4-yl)-1H-pyrazolo[3,4-d]pyrimidine]
> 10000 | > 20000 | 8550 | Cn1ncc2c(Nc3ccc(C(N)=O)cc3)nc(-c3ccc(-c4ccccc4)cc3)nc21 [Example 60, 4-[(6-biphenyl-4-yl-1-methyl-1H-pyrazolo[3,4-d]pyrimidin-4-yl)amino]benzamide]
> 10000 | > 20000 | 2460 | CC(C)c1ccc(-c2nc(Nc3ccc(C(N)=O)cc3)c3cnn(C)c3n2)cc1 [Example 61, 4-{[6-(4-isopropylphenyl)-1-methyl-1H-pyrazolo[3,4-d]pyrimidin-4-yl]amino}benzamide]
1590 | 4800 | 603 | Cn1cc(-c2nc(Nc3ccc(C(N)=O)cc3)c3cnn(C)c3n2)cn1 [Example 62, 4-{[1-methyl-6-(1-methyl-1H-pyrazol-4-yl)-1H-pyrazolo[3,4-d]pyrimidin-4-yl]amino}benzamide]
1710 | 1300 | 314 | Cn1ncc2c(Nc3ccc(C(N)=O)cc3)nc(-c3ccoc3)nc21 [Example 65, 4-{[6-(3-furyl)-1-methyl-1H-pyrazolo[3,4-d]pyrimidin-4-yl]amino}benzamide]
1160 | > 20000 | 762 | Cn1ncc2c(Oc3ccc4[nH]ccc4c3)nc(-c3cccc(Cl)c3)nc21 [Example 66, 6-(3-chlorophenyl)-4-(1H-indol-5-yloxy)-1-methyl-1H-pyrazolo[3,4-d]pyrimidine]
1260 | 16000 | 660 | Cn1ncc2c(Oc3ccc4[nH]ccc4c3)nc(-c3cccc([N+](=O)[O-])c3)nc21 [Example 67, 4-(1H-indol-5-yloxy)-1-methyl-6-(3-nitrophenyl)-1H-pyrazolo[3,4-d]pyrimidine]
1030 | > 20000 | 1050 | Cn1ncc2c(Oc3ccc4[nH]ccc4c3)nc(-c3ccoc3)nc21 [Example 68, 6-(3-furyl)-4-(1H-indol-5-yloxy)-1-methyl-1H-pyrazolo[3,4-d]pyrimidine]
> 10000 | > 20000 | 10800 | Cn1ncc2c(Oc3ccc4[nH]ccc4c3)nc(-c3cccc(OCc4ccccc4Cl)c3)nc21 [Example 69, 6-{3-[(2-chlorobenzyl)oxy]phenyl}-4-(1H-indol-5-yloxy)-1-methyl-1H-pyrazolo[3,4-d]pyrimidine]
1350 | > 20000 | 580 | Cc1noc(C)c1-c1nc(Oc2ccc3[nH]ccc3c2)c2cnn(C)c2n1 [Example 72, 6-(3,5-dimethylisoxazol-4-yl)-4-(1H-indol-5-yloxy)-1-methyl-1H-pyrazolo[3,4-d]pyrimidine]
> 9600 | 8200 | 1760 | COc1ccc(Oc2nc(-c3ccccc3)nc3c2cnn3C)cc1OC [Example 73, 4-(3,4-dimethoxyphenoxy)-1-methyl-6-phenyl-1H-pyrazolo[3,4-d]pyrimidine]
1340 | 5500 | 637 | CC(=O)Nc1ccc(Oc2nc(-c3ccccc3)nc3c2cnn3C)cc1 [Example 74, N-{4-[(1-methyl-6-phenyl-1H-pyrazolo[3,4-d]pyrimidin-4-yl)oxy]phenyl}acetamide]
1720 | 9200 | 1020 | Cn1ncc2c(Oc3ccc(C(N)=O)cc3)nc(-c3ccccc3)nc21 [Example 75, 4-[(1-methyl-6-phenyl-1H-pyrazolo[3,4-d]pyrimidin-4-yl)oxy]benzamide]
